These are literature values, as cited in patent US9750700B2 (Natco Pharma Limited, priority 2011, dated 2017).

The structures appear in SMILES notation.

The conditions of this data set: crystalline form of Imatinib mesylate.

Consider `CS(=O)(=O)O.Cc1ccc(NC(=O)c2ccc(CN3CCN(C)CC3)cc2)cc1Nc1nccc(-c2cccnc2)n1` [α-crystalline form], for which the hygroscopicity result is recorded as “hygroscopic”.
